From patent publication US20240269155A1, “METHODS AND USES OF BORON COMPOUNDS IN THE TREATMENT OF NONTUBERCULOUS MYCOBACTERIUM INFECTIONS AND PHARMACEUTICAL COMPOSITIONS FOR TREATMENT OF SAME” (priority 2022, published 2024)
≈ marks a conversion by molar mass, not a printed value. Where two headings read alike, the source gives them in different places.

What was measured:
M. fortuitum = assay: MIC determination (CLSI M24-A2); type: cell-based, Mycobacterium fortuitum
Experimental: (§1) The in vitro activity of the parent boron compound described herein was assessed by standard testing procedures such as the determination of minimum inhibitory concentration (MIC) as described in Clinical and Laboratory Standards Institute (CLSI) document M24-A2. Lower MIC values indicate high antibacterial activity, while higher MIC values indicate a reduced antibacterial activity. Generally, MIC values of about ≤2 mg/L indicate a good therapeutic (i.e., suitable for therapy) potency for antibacterial drugs, while MIC values of ≥8 mg/L indicate a lack of therapeutically useful activity for a test compound.
(§2) (MIC ranges from 0.063-2 mg/L).

M. intercelleulare = assay: MIC determination (CLSI M24-A2); type: cell-based, Mycobacterium intercelleulare; conditions: Mycobacterium, read-out: MIC
Experimental: as §1, §2

M. massiliense = assay: MIC determination (CLSI M24-A2); type: cell-based, Mycobacterium massiliense; conditions: Mycobacteroides abscessus, read-out: MIC
Experimental: as §1, §2

M. smegmatis = assay: MIC determination (CLSI M24-A2); type: cell-based, Mycobacterium smegmatis
Experimental: as §1, §2

M. gordonae = assay: MIC determination (CLSI M24-A2); type: cell-based, Mycobacterium gordonae; conditions: Mycobacterium gordonae, read-out: MIC
Experimental: as §1, §2

M. abscessus = assay: MIC determination (CLSI M24-A2); type: cell-based, Mycobacterium abscessus; conditions: Mycobacteroides abscessus, read-out: MIC
Experimental: as §1, §2

M. peregrinum = assay: MIC determination (CLSI M24-A2); type: cell-based, Mycobacterium peregrinum
Experimental: as §1, §2

M. avium = assay: MIC determination (CLSI M24-A2); type: cell-based, Mycobacterium avium; conditions: Mycobacterium avium, read-out: MIC
Experimental: as §1, §2

Mycobacteria pathogens = assay: MIC against mycobacteria pathogens, summary over species; type: cell-based, nontuberculous Mycobacterium
M. scrofulaceum = assay: MIC determination (CLSI M24-A2); type: cell-based, Mycobacterium scrofulaceum; conditions: Mycobacterium scrofulaceum, read-out: MIC
Experimental: as §1, §2

[1] = Lung distribution study in mouse; type: in vivo, Balb/C mouse; conditions: 10 mg/kg po
[2] = system: clinical isolates of M. abscessus complex; assay: MBC against clinical isolates of M. abscessus complex; type: cell-based, M. abscessus and M. massiliense; conditions: for Classification: from MBC/MIC ratio
[3] = system: clinical isolates of M. abscessus complex; assay: MIC against clinical isolates of M. abscessus complex; type: cell-based, M. abscessus and M. massiliense; conditions: Mycobacteroides abscessus, read-out: MIC
[4] = Mycolicibacterium fortuitum, read-out: MIC
[5] = Mycolicibacterium smegmatis, read-out: MIC
[6] = Mycolicibacterium peregrinum, read-out: MIC

Q: Which MIC (M. fortuitum; [4]) does the source give for `OB1OCc2cc(F)ccc21` [AN2690] here?
A: > 8 µg/mL

Q: And the MIC (M. intercelleulare)?
A: > 8 µg/mL

Q: What about the MIC (M. massiliense) of the same compound?
A: 4 µg/mL (≈ 26.3 µM)

Q: What about the MIC (M. smegmatis; [5]) of the same compound?
A: > 8 µg/mL

Q: What about the MIC (M. gordonae) of the same compound?
A: 8 µg/mL (≈ 52.7 µM)

Q: What about the MIC (M. abscessus) of the same compound?
A: > 8 µg/mL

Q: And the MIC (M. peregrinum; [6])?
A: > 8 µg/mL

Q: What about the MIC (M. avium) of the same compound?
A: > 8 µg/mL

Q: What about the “activity against all NTM species tested” value (Mycobacteria pathogens; all NTM species tested) of the same compound?
A: moderate or no activity

Q: What about the MIC (M. scrofulaceum) of the same compound?
A: 8 µg/mL (≈ 52.7 µM)

Q: What does the source list for `CC(C)C(=O)OC[C@H](COc1cccc2c1B(O)O[C@@H]2CN)OC(=O)C(C)C.Cl` [Example 2, (2S)-1-{[(3S)-3-(Aminomethyl)-1-hydroxy-1,3-dihydrobenzo[2,1-c][1,2]oxaborol-7-yl]oxy}-3-[(2-methylpropanoyl)oxy]propan-2-yl 2-methylpropanoate hydrochloride]?
A: AUClast ([1]; analyte Example 2 (prodrug), lung): 968 ng·h/g; conversion of prodrug to Example 4 in vivo ([1]; plasma): rapidly converted to Example 4; half-life ([1]; Balb/C, analyte Example 2 (prodrug), lung): 6.42 h; AUC(0-t) ([1]; Balb/C, analyte Example 2 (prodrug), plasma): 0.0421 ng·h/mL

Q: What does the source list for `Cl.NC[C@H]1OB(O)c2c(OCCO)ccc(Cl)c21` [GSK656, reference compound]?
A: MIC (M. fortuitum): >8 µg/mL; MIC (M. fortuitum; [4]): ≥ 8 µg/mL; MIC (M. intercelleulare): > 8 µg/mL; MIC (M. massiliense): 0.063 µg/mL; MIC (M. smegmatis): >8 µg/mL; MIC (M. smegmatis; [5]): ≥ 8 µg/mL; MIC (M. gordonae): 0.5 µg/mL; MIC (M. abscessus): 0.063 µg/mL; MIC (M. peregrinum): 8 µg/mL; MIC (M. peregrinum; [6]): ≥ 8 µg/mL; MIC (M. avium): > 8 µg/mL; bactericidal/bacteriostatic classification over the isolates ([2]; 20 clinical isolates of M. abscessus complex): bacteriostatic against all isolates; MBC ([2]; Mycobacteroides abscessus, clinical isolate A35, read-out: MBC): > 2 µg/mL; MBC ([2]; Mycobacteroides abscessus, clinical isolate A51, read-out: MBC): > 2 µg/mL; MBC ([2]; Mycobacteroides abscessus, clinical isolate A197, read-out: MBC): > 2 µg/mL; MBC ([2]; Mycobacteroides abscessus, clinical isolate A213, read-out: MBC): 2 µg/mL; MBC ([2]; Mycobacteroides abscessus, clinical isolate A215, read-out: MBC): 2 µg/mL; MBC ([2]; Mycobacteroides abscessus, clinical isolate A217, read-out: MBC): 2 µg/mL; MBC ([2]; Mycobacteroides abscessus, clinical isolate A255, read-out: MBC): 2 µg/mL; MBC ([2]; Mycobacteroides abscessus, clinical isolate A268, read-out: MBC): > 4 µg/mL; MBC ([2]; Mycobacteroides abscessus, clinical isolate A274, read-out: MBC): > 4 µg/mL; MBC ([2]; Mycobacteroides abscessus, clinical isolate A311, read-out: MBC): 1 µg/mL; MBC ([2]; Mycobacteroides abscessus, clinical isolate A353, read-out: MBC): 2 µg/mL; MBC ([2]; Mycobacteroides abscessus, clinical isolate G73, read-out: MBC): > 2 µg/mL; MBC ([2]; Mycobacteroides abscessus, clinical isolate G74, read-out: MBC): > 4 µg/mL; MBC ([2]; Mycobacteroides abscessus, clinical isolate G87, read-out: MBC): > 2 µg/mL; MBC ([2]; Mycobacteroides abscessus, clinical isolate G104, read-out: MBC): 2 µg/mL; MBC ([2]; Mycobacteroides abscessus, clinical isolate G110, read-out: MBC): > 2 µg/mL; MBC ([2]; Mycobacteroides abscessus, clinical isolate G164, read-out: MBC): > 2 µg/mL; MBC ([2]; Mycobacteroides abscessus, clinical isolate G182, read-out: MBC): > 2 µg/mL; Classification ([2]; clinical isolate A35): Bacteriostatic (bacteriostatic if the ratio was >4); Classification ([2]; clinical isolate A51): Bacteriostatic (bacteriostatic if the ratio was >4); Classification ([2]; clinical isolate A197): Bacteriostatic (bacteriostatic if the ratio was >4); Classification ([2]; clinical isolate A213): Bacteriostatic (bacteriostatic if the ratio was >4); Classification ([2]; clinical isolate A215): Bacteriostatic (bacteriostatic if the ratio was >4); Classification ([2]; clinical isolate A217): Bacteriostatic (bacteriostatic if the ratio was >4); MBC ([2]; clinical isolate A222): >>; Classification ([2]; clinical isolate A222): Bacteriostatic (bacteriostatic if the ratio was >4); Classification ([2]; clinical isolate A232): Bacteriostatic (bacteriostatic if the ratio was >4); Classification ([2]; clinical isolate A255): Bacteriostatic (bacteriostatic if the ratio was >4); Classification ([2]; clinical isolate A268): Bacteriostatic (bacteriostatic if the ratio was >4); Classification ([2]; clinical isolate A274): Bacteriostatic (bacteriostatic if the ratio was >4); Classification ([2]; clinical isolate A311): Bacteriostatic (bacteriostatic if the ratio was >4); Classification ([2]; clinical isolate A353): Bacteriostatic (bacteriostatic if the ratio was >4); Classification ([2]; clinical isolate G73): Bacteriostatic (bacteriostatic if the ratio was >4); Classification ([2]; clinical isolate G74): Bacteriostatic (bacteriostatic if the ratio was >4); Classification ([2]; clinical isolate G87): Bacteriostatic (bacteriostatic if the ratio was >4); Classification ([2]; clinical isolate G104): Bacteriostatic (bacteriostatic if the ratio was >4); Classification ([2]; clinical isolate G110): Bacteriostatic (bacteriostatic if the ratio was >4); Classification ([2]; clinical isolate G164): Bacteriostatic (bacteriostatic if the ratio was >4); Classification ([2]; clinical isolate G182): Bacteriostatic (bacteriostatic if the ratio was >4); MIC ([3]; clinical isolate A35): 0.063 µg/mL; MIC ([3]; clinical isolate A51): 0.063 µg/mL; MIC ([3]; clinical isolate A197): 0.063 µg/mL; MIC ([3]; clinical isolate A213): 0.063 µg/mL; MIC ([3]; clinical isolate A215): 0.063 µg/mL; MIC ([3]; clinical isolate A217): 0.063 µg/mL; MIC ([3]; clinical isolate A222): 0.063 µg/mL; MIC ([3]; clinical isolate A255): 0.063 µg/mL; MIC ([3]; clinical isolate A268): 0.125 µg/mL; MIC ([3]; clinical isolate A274): 0.125 µg/mL; MIC ([3]; clinical isolate A311): 0.063 µg/mL; MIC ([3]; clinical isolate A353): 0.125 µg/mL; MIC ([3]; clinical isolate G73): 0.063 µg/mL; MIC ([3]; clinical isolate G74): 0.063 µg/mL; MIC ([3]; clinical isolate G87): 0.063 µg/mL; MIC ([3]; clinical isolate G104): 0.063 µg/mL; MIC ([3]; clinical isolate G110): 0.063 µg/mL; MIC ([3]; clinical isolate G164): 0.063 µg/mL; MIC ([3]; clinical isolate G182): 0.063 µg/mL; fold less active than Example 4 (MIC) (Mycobacteria pathogens; M. fortuitum, M. peregrinum, M. smegmatis): more than 64 fold; MIC (M. scrofulaceum): 4 µg/mL

Q: With `CC(C)C(=O)OC[C@H](COc1cccc2c1B(O)O[C@@H]2CN)OC(=O)C(C)C.Cl` [drawing 20] as the compound, how does the MIC (M. intercelleulare) read?
A: > 8 µg/mL

Q: What about the MIC (M. abscessus) of the same compound?
A: > 8 µg/mL

Q: And the MIC (M. avium)?
A: > 8 µg/mL
